This note sets out measurements from patent publication US11142588B2, “Polypeptides which bind C-X-C chemokine receptor type 4 (CXCR4) and methods of treating or reducing the risk of fibrosis and cancer” (AdAlta Limited, priority 2015, dated 2021).

Assay [1] deals with human CD34+ stem and progenitor cells. Description: Mobilisation of human CD34+ cells in humanised NSG mice. The note with it: humanised NSG mouse model, compared to AMD3100. Format: in vivo, humanized NODSIL2Rγ (NSG) mice. The protocol: To acquire evidence of mobilisation of human CD34^+ stem and progenitor cells using CXCR4 i-bodies, the above mobilisation experiment was conducted in humanized NODSIL2Rγ (NSG) mice. NSG mice are severely immunodeficient and lack mature T cells, B-cells and NK cells and have severely defective innate immunity, which allows engraftment of human cells without subsequent rejection. NSG mice were transplanted with freshly sorted CD34^+ cord blood cells and upon confirmation of positive human CD45/CD34 engraftment (˜4-5 weeks) were used as a mouse model for human stem cell mobilisation.
Mobilised peripheral blood was harvested and assessed for CD34^+ (human stem and progenitors).

The subject of assay [2] is Ramos tumor cells. The assay is described as follows: MTT cell proliferation assay. Format: cell-based, human. The note with it: 24 to 72 hrs, AM3-114 at 10 μM. As for the experimental part: The ability of the CXCR4 molecules or polypeptides disclosed herein (i-bodies) to inhibit proliferation of Ramos tumor cells, a human Burkitt's lymphoma cell line expressing CXCR4 mentioned above, in vitro was examined in a MTT cell proliferation assay as described in (Lapteva (2005) Cancer Gene Therapy 12, 84-89). Cells were grown in a 96-well tissue culture plate and treated with a vehicle or the anti-CXCR4 body. The cells were then incubated with the MTT solution for approximately 4 hours. After this incubation period, a water-insoluble formazan dye is formed. After solubilization, the formazan dye is quantitated using a scanning multi-well spectrophotometer (ELISA reader).

Assay [3] is described as follows: Murine air pouch model with SDF-1. In kind it is in vivo, BALB/c mice. The note with it: intraperitoneal, 30 minutes before SDF-1 6 μg. The protocol: The ability of i-bodies to block inflammation was evaluated in an in vivo murine air pouch model. The subcutaneous (s.c.) air pouch is an in vivo model used to study acute and chronic inflammation (Durate et al, Models of Inflammation: Carrageenan Air Pouch, Current Protocols in Pharmacology 5.6.1-5.6.8, March 2012). Injection of irritants into an air pouch in rats or mice induces an inflammatory response that can be quantified by the volume of exudate produced, the infiltration of cells, and the release of inflammatory mediators. An air pouch, is generated by injection of sterile air under the skin of the back of the mouse. […] Air pouch lavage fluid is then analyzed for cell trafficking and cytokine release.
The air pouch assay was performed on 7-week-old BALB/c mice. On days 1 and 3, 0.2 ml/g initial body weight (IBW) of sterile air was injected under the back skin to create the pouch. […] Thirty minutes later, SDF-1 (6 μg) was injected into the pouch. Four hours later, the mice were killed in a CO2 chamber and the air pouch was washed. Cells were collected, counted, and characterized by flow cytometry.

The test system of assay [4] is white blood cells, LSK and LSKSLAM cells in peripheral blood. The assay is described as follows: Stem cell mobilisation in mice after i.v. injection. Format: in vivo, mouse. The settings on record: 1 and 3 hours after i.v. injection, compared to AMD3100. As for the experimental part:
After 1 and 3 hours, mice were euthanized and peripheral blood (PB) harvested. Spleens were harvested and weighed to assess for splenomegaly (enlargement of the spleen). Samples were lysed to remove red blood cells and 4000 cells plated for LPP (low-proliferative potential) and CFU-HPP (colony forming unit-high proliferative potential) colonies (colony counting 7 days post-plating). The remaining cells were stained with an antibody cocktail to assess lineage-committed, stem and progenitor cell content. Flow cytometric analysis was used to calculate numbers of lineage-committed cells, haemopoietic stem and progenitor cells as well as enriched HSC per volume of PB.

Assay [5] can be described thus: Bleomycin mouse model of pulmonary fibrosis. In kind it is in vivo. Put shortly: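 Mice received bleomycin 2 U/mouse, with i-body dosed just before; at day 4, BAL SDF-1, lung fibrocytes (CD45+ CXCR4+ Collagen1+ by flow cytometry of collagenase/dispase suspensions), Sircol collagen staining and Col-1, Col-3, SDF-1 RNA were assessed. A separate 21-day bleomycin study tested PEGylated i-body.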

Assay [6] relates to Ramos tumor cells. The assay is described as follows: Apoptosis assay (annexin V / propidium iodide flow cytometry). The settings on record: annexin V and propidium iodide double positive, 24 or 72 hours. In kind it is cell-based, human. A general note: A flow cytometer gives signals particle by particle.
The subject of a further assay is human CD34+CD38− HSC. Description: In vitro flow cytometric binding to HSC. In kind it is cell-based. The note with it: 10 μg/ml; for binding to human Cord Blood HSC: in decreasing avidity. The protocol:
To determine whether CXCR4 i-bodies bind HSC, in vitro binding analysis to human CD34+CD38^− cells was assessed. Umbilical cord blood (CB) and human bone marrow (BM) were collected as previously described (Nilsson S K et al, 2005 15; 106(4):1232-9; Grassinger, 2009 2; 114(1):49-59). Enriched human BM CD34+ cells and purified CB CD34^+ cells were isolated as previously described (Grassinger, 2009). Human CB and BM CD34+ cells and huNSG BM were stained sequentially with CXCR4 i-bodies (10 μg/ml), anti-His-PE and an antibody cocktail containing CD34-FITC (BD Biosciences #348053) and CD38-BV421 (BD Horizon #562444), washed with PBS (0.5% BSA) and analysed by flow cytometry on a Cytopeia Influx (BD) as previously described (Grassinger, 2009). For analysis of human and murine BM and PB, up to 5×10^6 cells were analyzed at 10-20,000 cells/sec. Data were analyzed using FlowJo 10 software (FlowJo, LLC). For analysis of huNSG BM, huCD45-PECy7 (BD Biosciences #557748) and muCD45-BUV395 (BD Biosciences #564279) were also included in the antibody cocktail. HSC from human CB and BM were defined as CD34+CD38− and HSC from huNSG mice were defined as muCD45^−huCD45^+CD34^+CD38^−. CB and BM samples from 3 individual donors and BM from 3 individual huNSG mice were assessed.

Entries after “also recorded” stand apart in the source; their conditions may differ.

Take “AM3-114: affinity matured CXCR4 i-body, SEQ ID NO: 40”: in assay [1], the “mobilisation of human CD34+ stem cells” value is recorded as “do not mobilise stem cells”. For the same molecule, the “growth of RAMOS cells” value in the assay on Ramos tumor cells [2] is “substantially inhibit the growth”. The “cell migration / leukocyte infiltration into the air pouch” value in assay [3] was “inhibiting leukocyte infiltration; also recorded: inhibited cell migration”. For the same molecule, the “mobilisation of white blood cells” value in assay [4] is “No mobilisation”. The “collagen content of the lung (Sircol)” value in assay [5] (30 mg/kg) is listed as “reduced the collagen content”. Further, the “recruitment of fibrocytes into the lungs” value in assay [5] (30 mg/kg, day 4, CD45+ CXCR4+ Col 1+ cells) is “dramatically attenuate”. Besides, the “induction of apoptosis in Ramos cells” value in the assay on Ramos tumor cells [6] is “induced apoptosis”. In the assay on human CD34+CD38− HSC, the “binding to human Bone Marrow HSC and Bone Marrow from huNSG mice” value is given as “effectively bound”; the “binding to human Cord Blood HSC” value is reported as “effectively bound”.

B1: AM3-523: affinity matured CXCR4 i-body, SEQ ID NO: 56 (protein)
chain: LQVDIVPSQGEISVGESKFFLCQVAGSGSHMRISWFSPNGEKLTPNQQRISVVWNDDSSSTLTIYNANIDDAGIYKCVVWVGGYRHRALVLGEATVNVKIFQ
modifications: protein sequence encoding AM3-523
Take B1: the “mobilisation of human CD34+ stem cells” value in assay [1] was “do not mobilise stem cells”. Moreover, in the assay with Ramos tumor cells [2], the “growth of RAMOS cells” value was “no observable effect”. Also, the “cell migration / leukocyte infiltration into the air pouch” value in assay [3] is reported as “inhibiting leukocyte infiltration; also recorded: inhibited cell migration”. For the same molecule, in assay [4], the “mobilisation of white blood cells” value is listed as “No mobilisation”. Also, the “recruitment of fibrocytes into the lungs” value in assay [5] (1 mg/Kg, day 4) is “block recruitment of fibrocytes”; in assay [5] (day 4, dose not given), “significantly attenuate”. The “collagen content of the lung (Sircol)” value in assay [5] (30 mg/kg) is on record as “reduced the collagen content”. In addition, the “induction of apoptosis in Ramos cells” value with Ramos tumor cells [6] is on record as “induced apoptosis”. Further, the “binding to human Cord Blood HSC” value with human CD34+CD38− HSC is given as “effectively bound”.
